According to patent publication US20070191374A1, “Substituted cinnolin-4-ylamines” (Neurogen Coroperation, priority 2004, published 2007):

Key:
human capsaicin receptor = target: T1, human capsaicin receptor (Homo sapiens, UniProt Q8NER1); assay: Calcium mobilization assay; assay type: cell-based; details: cells expressing human capsaicin receptor, FLUO-3 fluorescence; positive control in agonist assay; read-out: approximate EC90 concentration
T1 construct: pBK-CMV expression construct encoding the full length human capsaicin receptor; expressed in transfected cells
T1 sequence (Q8NER1 whole entry): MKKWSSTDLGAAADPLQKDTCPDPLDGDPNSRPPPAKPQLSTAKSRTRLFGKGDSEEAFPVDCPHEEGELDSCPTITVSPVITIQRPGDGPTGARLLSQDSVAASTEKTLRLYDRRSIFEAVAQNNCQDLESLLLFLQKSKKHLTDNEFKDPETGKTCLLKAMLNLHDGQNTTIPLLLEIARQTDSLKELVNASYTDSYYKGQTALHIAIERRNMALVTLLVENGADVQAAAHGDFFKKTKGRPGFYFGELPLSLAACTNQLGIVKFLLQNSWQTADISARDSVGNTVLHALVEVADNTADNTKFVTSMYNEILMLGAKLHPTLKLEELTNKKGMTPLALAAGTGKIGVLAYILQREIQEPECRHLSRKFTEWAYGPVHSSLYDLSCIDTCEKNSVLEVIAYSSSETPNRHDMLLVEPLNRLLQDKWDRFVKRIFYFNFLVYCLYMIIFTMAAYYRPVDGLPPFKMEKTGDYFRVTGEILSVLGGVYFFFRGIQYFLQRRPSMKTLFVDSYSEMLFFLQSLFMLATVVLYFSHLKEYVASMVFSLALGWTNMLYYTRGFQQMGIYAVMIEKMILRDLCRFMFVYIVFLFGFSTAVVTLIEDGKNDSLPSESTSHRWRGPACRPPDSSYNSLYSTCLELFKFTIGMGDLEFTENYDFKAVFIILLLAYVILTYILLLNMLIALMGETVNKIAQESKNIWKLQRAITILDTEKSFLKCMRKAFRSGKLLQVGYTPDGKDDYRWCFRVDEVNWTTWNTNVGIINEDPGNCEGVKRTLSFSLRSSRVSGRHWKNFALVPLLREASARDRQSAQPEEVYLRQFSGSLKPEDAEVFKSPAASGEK
Protocol: This Example illustrates representative calcium mobilization assays for use in evaluating test compounds for agonist and antagonist activity.
The culture medium is emptied from the 96 well plates and FLUO-3 AM calcium sensitive dye (Molecular Probes, Eugene, Oreg.) is added to each well (dye solution: 1 mg FLUO-3 AM, 440 μL DMSO and 440 μl 20% pluronic acid in DMSO, diluted 1:250 in Krebs-Ringer HEPES (KRH) buffer (25 mM HEPES, 5 mM KCl, 0.96 mM NaH2PO4, 1 mM MgSO4, 2 mM CaCl2, 5 mM glucose, 1 mM probenecid, pH 7.4), 50 μl diluted solution per well). Plates are covered with aluminum foil and incubated at 37° C. for 1-2 hours in an environment containing 5% CO2. […]
To measure the ability of a test compound to agonize or antagonize a calcium mobilization response in cells expressing capsaicin receptors to capsaicin or other vanilloid agonist, the EC50 of the agonist capsaicin is first determined. […] Capsaicin-induced calcium mobilization is monitored using either FLUOROSKAN ASCENT (Labsystems; Franklin, Mass.) or FLIPR (fluorometric imaging plate reader system; Molecular Devices, Sunnyvale, Calif.) instruments. […] In this equation, y is the maximum fluorescence signal, x is the concentration of the agonist or antagonist (in this case, capsaicin), a is the Emax, b corresponds to the EC50 value and c is the Hill coefficient. […]

VR = VR (Homo sapiens, UniProt Q8NER1); details: typical value, background section; read-out: K; value (binds to VR); cited from earlier work
Sequence of VR (Q8NER1 whole entry): as above

| EC90 (human capsaicin receptor) | SMILES | Ki (VR) |
| --- | --- | --- |
| ~0.1 µM | COc1cc(CNC(=O)CCCC/C=C/C(C)C)ccc1O [capsaicin] | – |
| – | Cl.Cl.Cl.Cl.Cl.Cl.N.N.N.N.N.N.N.N.N.N.N.N.N.N.[O-2].[O-2].[Ru+3].[Ru+3].[Ru+4] [ruthenium red] | ≥ 140 µM |
